Data from patent publication US20220016200A1, “PHARMACEUTICAL COMPOSITION FOR THE TREATMENT OF CYSTIC FIBROSIS” (GALENUS G.H. AG, priority 2018, published 2022).
Like-named read-outs stand apart in the source and are kept apart here. Bridge positions count the residues as written; N and C are the ends. Square brackets hold non-standard residues; d marks the D form. Peptide text beside a SMILES is read from it. * marks the point of attachment. Heptanoyl(5-Me) = CCC(C)CCCC(=O)*; Dab = NCC[C@H](N)C(=O)O

Columns and labels:
[1] = test system: S. maltophilia 1221783; assay: Checkerboard colistin sulphate (CS) plus teicoplanin (TP), MIC/FIC and MBC/FBC; type: cell-based, Stenotrophomonas maltophilia; settings: agent alone, CAMHB, 5*10^5 CFU/ml
Protocol: Checkerboard analysis to determine minimal inhibitory concentration (MIC)/fractional inhibitory concentration (FIC) and minimal bacterial concentration (MBC)/fractional bacterial concentration (FBC) values of colistin sulphate (CS) plus teicoplanin (TP) for 6 Gram-negative strains with a bacterial load 5(1-10)*10^5 CFU/ml in a cation-adjusted Mueller-Hinton broth (CAMHB). • a. Antimicrobial stock solutions were prepared using sterile distilled water • b. CS was added along the ordinate; TP was added along the abscissa to 96 well, flat bottom, polystyrene panels with no treatment. Colistin alone was tested in triplicates. • c. Serial 2-fold dilutions starting with 640 μg/ml CS and 640 μg/ml TP were made; 15 μl volume of the serial dilutions were added for each agent to the appropriate wells; final volume at 30 μl • d. For each agent tested alone an additional 15 μl media was added to the well. 30 μl were added in control wells where none of the agent was tested. The negative control well contains 150 μl media without any additions • e. From an overnight bacterial culture in tryptic soy broth, 100 μL was added to 10 mL of fresh tryptic soy broth. This was then incubated at 37° C. for 1.5 hour at 180 rpm. • f. Bacteria in 120 μl CAMHB were added to each well (end concentration 5(1-10)*10^5 CFU/ml) • g. Plates were incubated at 37° C. in an ambient air incubator for 24 h • h. Turbidity at OD600 is determined with a plate photometer • i. By using a one-time inoculator 3 μl from each well of the 96-well plate were transferred to three blood agar plates. The plates were incubated over night at 37° C. in an ambient air incubator • j. […] Determination of the fractional inhibitory concentration (FIC) index and fractional bactericidal concentration (FBC) index and characterization of antimicrobial interactions was assessed […]
Interactive categories were calculated from checkerboard analysis using MIC results from testing each agent alone and MIC results from the combination wells adjacent to the wells with growth in them […]

[2] = test system: A. nosocomialis strain (1204194 IHMA); assay: Pneumonic mouse model, colistin susceptible strain; type: in vivo, Acinetobacter nosocomialis
Protocol: (§1) One colistin susceptible (MIC 1 mg/L) A. nosocomialis strain (1204194 IHMA) and one colistin resistant (MIC 4 mg/L) A. nosocomialis strain (1461911 IHMA) are used. […] Fresh brain heart infusion broth (Merck, Darmstadt, Germany) bacterial cultures, in an aerobic atmosphere in the logarithmic growth phase (4-5 hours) at 37° C., are adjusted to a concentration of 1.0×10^6 colony forming units (CFU)/mL, as verified by both spectrophotometry (OD600 0.01-0.02 nm) and colony counting.
(§2) A pneumonic mouse model was used. 8- to 12-week-old, specific-pathogen free, male or female BALB/c mice, with 25-35 g in weight, are used for the study Animals have free access to food and water except during experimental procedures. All studies are performed in accordance with the ethical guidelines for the care and use of laboratory animals, and the protocol is approved by an independent ethical commission.
(§3) For inoculation, fresh inocula are prepared for each experiment from frozen stocks of the two A. nosocomialis isolates (1204194 and 1461911 IHMA). Broth cultures of freshly plated A. nosocomialis bacteria are grown to logarithmic phase overnight to an absorbance of 0.3 at 630 nm and diluted to 10^7 CFU/ml in saline. Mice are anesthetized by intraperitoneal (i.p.) injection of 12.5 mg/kg (5 μl) xylazine and 80 mg/kg (25 μl) ketamine and then inoculated intranasally with 0.05 ml of this bacterial suspension. […]

[3] = test system: A. nosocomialis strain (1461911 IHMA); assay: Pneumonic mouse model, colistin resistant strain; type: in vivo, Acinetobacter nosocomialis; settings: BALB/c mice, 3 per group, one intramuscular dose 24 hours after inoculation, combination groups stated together for both strains (6 mice)
Protocol: as §1, §2, §3

`CCC(C)CCCC(=O)N[C@@H](CCN)C(=O)N[C@H](C(=O)N[C@@H](CCN)C(=O)N[C@H]1CCNC(=O)[C@H]([C@@H](C)O)NC(=O)[C@H](CCN)NC(=O)[C@H](CCN)NC(=O)[C@H](CC(C)C)NC(=O)[C@@H](CC(C)C)NC(=O)[C@H](CCN)NC1=O)[C@@H](C)O` (stereo partly drawn) [CS, colistin sulphate] ({Heptanoyl(5-Me)}-[Dab]T[Dab][Dab][Dab][dL]L[Dab][Dab]T; lactam 4-C) was tested, and the MIC ([1]; Stenotrophomonas maltophilia, 1221783, 24 h, read-out: MIC) was at most 0.5 µg/mL, the MIC ([1]; 24 h) was 0.25 µg/mL and the “mice that survive until day 3” value ([2]; BALB/c mice, 3 per group, colistin susceptible strain, one intramuscular dose 24 hours after inoculation, combination groups stated together for both strains (6 mice)) was 2/3. For the same compound, the “numbers of A. nosocomialis in the lung tissue” value ([2]; day 3, confirmed by qRT-PCR, two surviving monotherapy mice compared with all mice treated with colistin sulphate and teicoplanin or colistin sulphate and fusidic acid) was “significantly higher numbers” and the “mice that survive until day 3” value [3] was 0/3.
